Experimental data as given in paper PMC7796460, “Relation of Metal-Binding Property and Selective Toxicity of 8-Hydroxyquinoline Derived Mannich Bases Targeting Multidrug Resistant Cancer Cells” (Cancers, 2021).
Like-named read-outs stand apart in the source and are kept apart here.

How the values were obtained:
MES-SA/Dx5 cells [1] = assay: MTT viability assay, MES-SA/Dx5; type: cell-based, human; details: for SR: Table S1, IC50 Pgp negative divided by Pgp positive cells; for SR_TQ: Table S1, presence of 1 µM TQ
Source text: (§1) MDCK II canine kidney cells, A431 epidermoid carcinoma cells, the human uterine sarcoma cell lines MES-SA and the doxorubicin selected MES-SA-Dx5 were obtained from ATCC (MDCK II: No. CRL-2936™, A431: No. CRL-1555™, MES-SA: No. CRL-1976™, MES-SA/Dx5: No. CRL-1977™). ABCB1 was expressed in A431 and MES-SA cells using lentiviral transduction. The human cervix carcinoma cell line KB-3-1 and the vinblastine selected KB-v1were kind gifts from Dr. Michael M. Gottesman, National Institutes of Health. The phenotype of the resistant cells was verified using cytotoxicity assays. MDCK-B1 and MDCK-MM were established by the Sleeping Beauty transposon-based gene delivery system. OVCAR-8 and NCI-ADRres cells (obtained from the Division of Cancer Treatment and Diagnosis (DCTD) Tumor Repository (National Cancer Institute, Frederick, MD, USA)) were cultivated in RPMI-1640 (Sigma Aldrich, Budapest, Hungary), and other cell lines were cultivated in Dulbecco’s Modified Eagle Medium (DMEM, Sigma Aldrich, Budapest, Hungary), supplemented with 10% fetal bovine serum, 5 mM glutamine, and 50 unit/mL penicillin and streptomycin (Life Technologies, Carlsbad, CA, USA). All cell lines were cultivated at 37 °C, 5% CO2.
(§2) MTT viability assays were performed as described earlier with minor modifications. Briefly, cells were seeded into 96-well tissue culture plates (Sarstedt, Newton, NC, USA/Orange, Braine-l’Alleud, Belgium) at a density of 5000 cells/well and allowed to attach overnight. Test compounds were added to achieve the required final concentration in a final volume of 100 µL per well. After an incubation period of 72 h, the supernatant was removed and fresh medium containing the MTT reagent (0.083 mg/mL) was added. Incubation with MTT at 37 °C was terminated after 1 h by removing the supernatant and lysing the cells with 100 µL DMSO per well. Viability of the cells was measured spectrophotometrically based on the absorbance values at 540 nm using either a Perkin Elmer Victor X3 or an EnSpire microplate reader. Data were background corrected by subtraction of the signal obtained from unstained cell lysates and normalized to untreated cells. Curves were fitted by Prism software (GraphPad Software Inc., San Diego, CA, USA) using the sigmoidal dose-response model (comparing variable and fixed slopes). […] Significance was calculated using unpaired t-tests; results are given as *: p ≤ 0.05, **: p ≤ 0.01, ***: p ≤ 0.001, ****: p ≤ 0.0001.

MES-SA cells [2] = assay: MTT viability assay, MES-SA; type: cell-based, human
Source text: as §1, §2

MES-SA cells [3] = assay: ROS determination with DCFDA, MES-SA; type: cell-based, human; details: 2 h
Experimental: (§3) Measurements were performed as described earlier. Briefly, cells were harvested, washed with PBS, and incubated with 10 µM DCFDA in a water bath shaker at 37 °C for 30 min in a density of 3 × 10^6 cells/mL. After washing with PBS, cells were seeded to 96-well plates in PBS in a density of 2 × 10^4 cells/well. Following the measurement of the basal fluorescence, test compounds were added in different concentrations and the fluorescence of the samples was followed at time intervals of 10 min. DCFDA solution in buffer was used as a cell free control to test for interaction of the test compounds with DCFDA. Data were analyzed as fold change of fluorescence compared to basal levels and untreated cells. Significance was calculated using unpaired t-tests; results are given as *: p ≤ 0.05, **: p ≤ 0.01, ***: p ≤ 0.001, ****: p ≤ 0.0001.
(§4) Table S3: Characterization of intracellular ROS production with the DCFDA assay for P -gp negative MES-SA and P-gp positive MES-SA/Dx5 cells. Fold changes in fluorescence are shown after a 2 h with the investigated 8 -hydroxyquinoline ligands. Data S-refer to Figure 7 and allow […]
(§5) concentration range from 6.25µ M to 50µ M. Fold change of fluorescence obtained in the presence of 5 mM NAC is given in brackets.

MES-SA/Dx5 cells [4] = assay: ROS determination with DCFDA, MES-SA/Dx5; type: cell-based, human; details: 2 h
Experimental: as §3, §4, §5

[5] = pKa by UV-visible spectrophotometric titrations; type: physicochemical; details: 0.2 M KCl (ionic strength), T = 25 °C, I = 0.2 M (KCl)
[6] = Table S1, calculated as ligand equivalents, absence of TQ, read-out: IC50 Dx5
[7] = Table S1, calculated as ligand equivalents, presence of 1 µM TQ, read-out: IC50 Dx5_TQ
[8] = Table S1, calculated as ligand equivalents, presence of 1 µM TQ, read-out: IC50 MES-SA_TQ
[9] = Table S1, ligands and in situ preformed complexes, calculated as ligand equivalents, absence of TQ, read-out: IC50 MES-SA
[10] = Homo sapiens, MES-SA/Dx5, Table 2, value outside brackets, read-out: MES-SA/Dx5 (toxicity, Table 2)
[11] = Table 2, value outside brackets
[12] = Homo sapiens, MES-SA, Table 2, value outside brackets, read-out: MES-SA (toxicity, Table 2)
[13] = group named in the cell (NmorpholiniumH+, NpiperidiniumH+, NbenzylamineH2+), read-out: pKa (additional)

With `[Fe+3].[O-]c1c(CN2CCCCC2)ccc2cccnc12.[O-]c1c(CN2CCCCC2)ccc2cccnc12.[O-]c1c(CN2CCCCC2)ccc2cccnc12` [1/3 [Fe(Q-3)3]] the SR (MES-SA/Dx5 cells [1]; absence of TQ) was 2.33, the IC50 (MES-SA/Dx5 cells [1]; [6]) was 0.91 ± 0.22 µM and the IC50 (MES-SA/Dx5 cells [1]; [7]) was 1.45 ± 0.25 µM. It also gave an SR_TQ (MES-SA/Dx5 cells [1]) of 1.25, an IC50 (MES-SA cells [2]; [8]) of 1.82 ± 0.71 µM and an IC50 (MES-SA cells [2]; [9]) of 2.12 ± 0.68 µM.
`[Fe+3].[O-]c1c(CNCc2ccccc2F)cc(Cl)c2cccnc12.[O-]c1c(CNCc2ccccc2F)cc(Cl)c2cccnc12.[O-]c1c(CNCc2ccccc2F)cc(Cl)c2cccnc12` [1/3 [Fe(Q-4)3]] gave an SR (MES-SA/Dx5 cells [1]; absence of TQ) of 13.14, an IC50 (MES-SA/Dx5 cells [1]; [6]) of 0.22 ± 0.12 µM and an IC50 (MES-SA/Dx5 cells [1]; [7]) of 3.45 ± 0.33 µM. For the same compound, the SR_TQ (MES-SA/Dx5 cells [1]) was 1.03, the IC50 (MES-SA cells [2]; [8]) was 3.54 ± 0.13 µM and the IC50 (MES-SA cells [2]; [9]) was 2.95 ± 1.33 µM.
With `Oc1ccc(Cl)c2cccnc12` [Compound 5-Cl-Q-1] the IC50 (MES-SA/Dx5 cells [1]; [10]) was 9.66 ± 2.48 µM, the “SR MES-SA/Dx5 (Table 2)” value (MES-SA/Dx5 cells [1]; Table 2, value in brackets (Tariquidar as in Table 1)) was 1.46 and the “SR MES-SA/Dx5 (Table 2)” value (MES-SA/Dx5 cells [1]; [11]) was 1.08. For the same compound, the “Fold change in fluorescence (DCFDA)” value (MES-SA cells [3]; 6.25 µM) was 1.147± 0.32, the “Fold change in fluorescence (DCFDA)” value (MES-SA cells [3]; 6.25 µM, presence of 5 mM NAC (brackets)) was 1.668± 0.35 and the “Fold change in fluorescence (DCFDA)” value (MES-SA cells [3]; 12.5 µM) was 1.119± 0.30. The “Fold change in fluorescence (DCFDA)” value (MES-SA cells [3]; 12.5 µM, presence of 5 mM NAC (brackets)) was 1.418± 0.24, the “Fold change in fluorescence (DCFDA)” value (MES-SA cells [3]; 25 µM) was 1.071± 0.35 and the “Fold change in fluorescence (DCFDA)” value (MES-SA cells [3]; 25 µM, presence of 5 mM NAC (brackets)) was 1.443± 0.22. The “Fold change in fluorescence (DCFDA)” value (MES-SA cells [3]; 50 µM) was 0.891± 0.34, the “Fold change in fluorescence (DCFDA)” value (MES-SA cells [3]; 50 µM, presence of 5 mM NAC (brackets)) was 1.209± 0.23 and the “Fold change in fluorescence (DCFDA)” value (MES-SA/Dx5 cells [4]; MES-SA/Dx5, 6.25 µM) was 1.203± 0.32. For the same compound, the “Fold change in fluorescence (DCFDA)” value (MES-SA/Dx5 cells [4]; MES-SA/Dx5, 6.25 µM, presence of 5 mM NAC (brackets)) was 1.279± 0.21, the “Fold change in fluorescence (DCFDA)” value (MES-SA/Dx5 cells [4]; MES-SA/Dx5, 12.5 µM) was 1.291± 0.48 and the “Fold change in fluorescence (DCFDA)” value (MES-SA/Dx5 cells [4]; MES-SA/Dx5, 12.5 µM, presence of 5 mM NAC (brackets)) was 1.187± 0.23. The “Fold change in fluorescence (DCFDA)” value (MES-SA/Dx5 cells [4]; MES-SA/Dx5, 25 µM) was 1.355± 0.46, the “Fold change in fluorescence (DCFDA)” value (MES-SA/Dx5 cells [4]; MES-SA/Dx5, 25 µM, presence of 5 mM NAC (brackets)) was 1.220± 0.22 and the “Fold change in fluorescence (DCFDA)” value (MES-SA/Dx5 cells [4]; MES-SA/Dx5, 50 µM) was 1.206± 0.49. For the same compound, the “Fold change in fluorescence (DCFDA)” value (MES-SA/Dx5 cells [4]; MES-SA/Dx5, 50 µM, presence of 5 mM NAC (brackets)) was 1.152± 0.06 and the IC50 (MES-SA cells [2]; [12]) was 10.4 ± 1.71 µM.
With `CC(=O)N[C@@H](CS)C(=O)O` [NAC, N-acetyl cysteine, reference compound] the “Effect on viability of the cells, alone” value (MES-SA/Dx5 cells [1]; 5 mM, MES-SA/Dx5) was “did not influence the viability” and the “Effect on viability of the cells, alone” value (MES-SA cells [2]; 5 mM, MES-SA) was “did not influence the viability”.
In the case of `Oc1c(CN2CCOCC2)ccc2ccccc12` [NC-2, 2-(morpholino-methyl)naphthalen-1-ol], the IC50 (MES-SA/Dx5 cells [1]; [10]) is reported as 562 ± 36.8 µM, the “SR MES-SA/Dx5 (Table 2)” value (MES-SA/Dx5 cells [1]; [11]) is reported as 0.75 and the pKa [5, 13] is reported as 6.61 ± 0.02. It also gave a pKa ([5]; read-out: pKa (OH)) of 9.21 ± 0.02 and an IC50 (MES-SA cells [2]; [12]) of 422 ± 34.9 µM.
In the case of `Oc1c(CN2CCCCC2)ccc2ccccc12` [NC-3, 2-(piperidin-1-ylmethyl)naphthalen-1-ol], the IC50 (MES-SA/Dx5 cells [1]; [10]) is reported as 163 ± 16.6 µM, the “SR MES-SA/Dx5 (Table 2)” value (MES-SA/Dx5 cells [1]; [11]) is reported as 0.86 and the pKa [5, 13] is reported as 10.12 ± 0.01. It also gave a pKa ([5]; read-out: pKa (OH)) of 6.06 ± 0.01 and an IC50 (MES-SA cells [2]; [12]) of 140 ± 47.9 µM.
In the case of `Oc1c(CNCc2ccccc2F)ccc2ccccc12` [NC-4, 2-((2-fluorobenzylamino)methyl)naphthalen-1-ol], the IC50 (MES-SA/Dx5 cells [1]; [10]) is reported as 31.1 ± 2.17 µM, the “SR MES-SA/Dx5 (Table 2)” value (MES-SA/Dx5 cells [1]; [11]) is reported as 1.44 and the pKa [5, 13] is reported as 9.72 ± 0.02. The pKa ([5]; read-out: pKa (OH)) was 5.5 ± 0.02 and the IC50 (MES-SA cells [2]; [12]) was 44.7 ± 4.52 µM.
